Consider four molecules from PMC11203437, “Subtle Structural Differences Affect the Inhibitory Potency of RGD-Containing Cyclic Peptide Inhibitors Targeting SPSB Proteins” (International Journal of Molecular Sciences, 2024).

The test system of assay [1] is SPSB4-iNOS interaction (GST-tagged SPRY domain of SPSB4; full-length iNOS from RAW 264.7 lysate). Description: cell lysate inhibition assay, SPSB4-iNOS interaction (GST pull-down, Western blot). As to conditions: for displacement of full-length iNOS from SPSB4: 10 μM peptide, LPS/IFN-γ-stimulated RAW 264.7 lysate, 2 h, GST pull-down, anti-iNOS Western blot. The format is biochemical, human (SPSB4). As to the method:
(§1) Figure 6 Inhibition of SPSB-iNOS interactions by cR7, cR8, and cR9. Cell lysates from lipopolysaccharide/interferon-γ-stimulated RAW 264.7 cells were incubated with the GST-tagged SPRY domains of (A) SPSB2, (B) SPSB1, and (C) SPSB4 in the absence or presence of cR7, cR8, and cR9. GST-tagged SPRY domain of TRIM25 was used as a negative control. A 9-mer linear peptide (hK9) derived from the iNOS N-terminal region was included as a control. After interaction for 2 h, GST-fusion proteins were recovered via affinity purification using glutathione-sepharose 4B beads. Interaction with full-length iNOS was analyzed by Western blotting with anti-iNOS antibody (upper panels) and equivalent protein input was confirmed by reprobing the membranes with anti-GST antibody (lower panels).
(§2) The preparation of the recombinant His6-tagged SPRY domain of human SPSB2 (UniProtKB accession number Q99619, residues 22-220) has been previously described. Briefly, SPSB2 protein was initially purified using a Ni-NTA column and the amount of the protein was measured using the Bradford method. Either cR7 or cR9, at 1.5-fold molar excess, was then added to the protein and the SPSB2-cR7 and SPSB2-cR9 complexes were purified by gel filtration using a HiLoad 16/600 Superdex 75 column (GE Healthcare, Marlborough, MA, USA) equilibrated against a buffer containing 50 mM Tris-HCl pH 7.5, 150 mM NaCl, 5 mM DTT. To generate the GST-fusion proteins used in the cell lysate inhibition assay, the SPRY domains of human TRIM25 (UniProtKB Q14258, residues 433-630), SPSB2, SPSB1 (UniProtKB Q96BD6, residues 28-232), and SPSB4 (UniProtKB Q96A44, residues 28-232) were inserted into the pGEX-4T-2 vector (GE Healthcare, Marlborough, MA, USA). Protein expression was induced in an LB medium supplemented with 0.1 mM isopropyl β-D-1-thiogalactopyranoside (IPTG) at 18 °C overnight. Cells were harvested and resuspended in PBS, and then lysed using a cell disruptor (JNBIO, Guangzhou, China). Soluble GST-tagged proteins were purified using a glutathione sepharose 4B column prepared with PBS. […]
On the technique in general: A western blot detects proteins with antibodies after separation by electrophoresis.

Assay [2] has as its system SPSB1-iNOS interaction (GST-tagged SPRY domain of SPSB1; full-length iNOS from RAW 264.7 lysate). Description: cell lysate inhibition assay, SPSB1-iNOS interaction (GST pull-down, Western blot). Format: biochemical, human (SPSB1). Conditions: for inhibition of SPSB1-iNOS interaction: 1 μM peptide, LPS/IFN-γ-stimulated RAW 264.7 lysate, 2 h, GST pull-down, anti-iNOS Western blot. As to the method: as §1, §2

For assay [3], the target named is T1, SPSB2 (His6-tagged SPRY domain of human SPSB2, residues 22-220) (Homo sapiens, UniProt Q99619).
T1 construct: His6; made in house
T1 sequence (Q99619 22-220): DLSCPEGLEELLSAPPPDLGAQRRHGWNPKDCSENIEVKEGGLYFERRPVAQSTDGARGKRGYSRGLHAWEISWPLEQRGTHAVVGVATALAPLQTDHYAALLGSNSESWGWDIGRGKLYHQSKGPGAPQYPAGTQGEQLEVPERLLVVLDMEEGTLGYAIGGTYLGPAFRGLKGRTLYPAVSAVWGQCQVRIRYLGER
Put plainly: isothermal titration calorimetry (ITC), binding to SPSB2. As to conditions: ITC Kd compared with cR8 Kd reported previously [19]. The protocol: as §2, with “overnight.” for “overnight. Cells were harvested and resuspended in PBS, and then lysed using a cell disruptor (JNBIO, Guangzhou, China). Soluble GST-tagged proteins were purified using a glutathione sepharose 4B column prepared with PBS.”
All ITC measurements were performed at 25 °C using iTC200 (Malvern Panalytical, Malvern, UK). […] The dissociation constant (Kd) was calculated, with the error from the Origin-calculated association constant (K) transferred as the same fraction of the primary value.

Assay [4] has as its system SPSB2-iNOS interaction (GST-tagged SPRY domain of SPSB2; full-length iNOS from RAW 264.7 lysate). Put plainly: cell lysate inhibition assay, SPSB2-iNOS interaction (GST pull-down, Western blot). The format is biochemical, human (SPSB2). Conditions: for displacement of full-length iNOS from SPSB2: 10 μM peptide, LPS/IFN-γ-stimulated RAW 264.7 lysate, 2 h, pH 7.5 lysis buffer, GST pull-down, anti-iNOS Western blot. The protocol: as §1, §2

The target in assay [5] is T2, GST-tagged SPRY domain of human SPSB1 (residues 28-232) (human, UniProt Q96BD6 28-232).
T2 construct: SPRY domain of human SPSB1, UniProtKB Q96BD6, residues 28-232; Cloned into pGEX-4T-2; also called SPSP1; source: recombinant, induced with IPTG in LB medium, purified (glutathione sepharose 4B)
T2 sequence (looked up): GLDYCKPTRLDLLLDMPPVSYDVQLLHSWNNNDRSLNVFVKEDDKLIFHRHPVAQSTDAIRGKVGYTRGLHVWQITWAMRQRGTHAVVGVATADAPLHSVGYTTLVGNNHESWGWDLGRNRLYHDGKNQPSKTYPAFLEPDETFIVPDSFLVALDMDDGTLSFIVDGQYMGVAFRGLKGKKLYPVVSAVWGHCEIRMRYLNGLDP
Put plainly: pull-down; competition: 1 μM or 10 μM cyclic peptide added to the RAW 264.7 lysate with 2 μg/mL GST-tagged SPRY domain for 2 h; iNOS recovered on glutathione sepharose 4B read by Western blot. Conditions: both partners purified.

Assay [6] deals with T3, GST-tagged SPRY domain of human SPSB4 (residues 28-232) (human, UniProt Q96A44 28-232).
T3 construct: SPRY domain of human SPSB4, UniProtKB Q96A44, residues 28-232; Cloned into pGEX-4T-2; source: recombinant, induced with IPTG in LB medium, purified (glutathione sepharose 4B)
T3 sequence (looked up): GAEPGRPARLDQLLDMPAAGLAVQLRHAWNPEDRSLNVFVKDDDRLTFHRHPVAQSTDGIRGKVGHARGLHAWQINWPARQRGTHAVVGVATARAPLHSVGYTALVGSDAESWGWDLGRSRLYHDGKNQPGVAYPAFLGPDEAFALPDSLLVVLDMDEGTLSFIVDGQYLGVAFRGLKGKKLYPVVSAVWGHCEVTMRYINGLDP
Described as above. Conditions: both partners purified.

Assay [7] has as its target T4, His6-tagged SPRY domain of human SPSB2 (residues 22-220) (human, UniProt Q99619 22-220).
T4 construct: SPRY domain of human SPSB2, UniProtKB Q99619, residues 22-220; also called SPRY domain-containing SOCS box protein 2; source: recombinant, purified (Ni-NTA; complexes with peptide by gel filtration on Superdex 75); preparation previously described [26]
T4 sequence (looked up): T1 sequence (Q99619 22-220)
Description: ITC; 100 μM cR7 or cR9 titrated into 10 μM SPSB2; 25 °C; 50 mM Tris-HCl pH 7.5, 150 mM NaCl, 5 mM DTT; single binding site model. As to conditions: both partners purified.

The mark [8] stands for this setting: overall comparison of cR7, cR8 and cR9, 1 or 10 μM, Western blot.

Peptide text beside a SMILES is read from it.

Turning to `CC[C@H](C)[C@@H]1NC(=O)[C@H](CC(=O)O)NC(=O)CNC(=O)[C@H](CCCNC(=N)N)NC(=O)[C@H](CC(N)=O)NC(=O)[C@H](CC(N)=O)NC(=O)[C@H](CC(N)=O)NC1=O` [cR7, cyclo(RGDINNN)] (cyclo(RGDINNN)), in assay [1], the “displacement of full-length iNOS from SPSB4” value is “able to displace full-length iNOS binding to SPSB4”. In addition, in assay [1] (setting [8]), the “overall inhibition of SPSB4-iNOS interaction, relative” value was “stronger inhibition”. Besides, the “inhibition of SPSB1-iNOS interaction” value in assay [2] was “can effectively inhibit SPSB1-iNOS interaction”. The “overall inhibition of SPSB1-iNOS interaction, relative” value in assay [2] (setting [8]) was “stronger inhibition”. For the same molecule, the “SPSB2-binding affinity, fold higher than cR8” value in assay [3] is reported as ~ 6.5 fold. In assay [4], the “displacement of full-length iNOS from SPSB2” value is on record as “able to displace full-length iNOS binding to SPSB2”. Moreover, the “overall inhibition of SPSB2-iNOS interaction, relative” value in assay [4] (setting [8]) was “stronger inhibition”.

`CC[C@H](C)[C@@H]1NC(=O)[C@H](CC(=O)O)NC(=O)CNC(=O)[C@H](CCCNC(=N)N)NC(=O)[C@H](CCC(=O)O)NC(=O)[C@H](C(C)C)NC(=O)[C@H](CC(N)=O)NC(=O)[C@H](CC(N)=O)NC(=O)[C@H](CC(N)=O)NC1=O` [cR9, cyclo(RGDINNNVE)] (cyclo(RGDINNNVE)): the “displacement of full-length iNOS from SPSB4” value in assay [1] is reported as “able to displace full-length iNOS binding to SPSB4”. Moreover, in assay [2], the “inhibition of SPSB1-iNOS interaction” value was “can effectively inhibit SPSB1-iNOS interaction”. The “SPSB2-binding affinity, fold higher than cR8” value in assay [3] is reported as ~ 2 fold. The “displacement of full-length iNOS from SPSB2” value in assay [4] is “able to displace full-length iNOS binding to SPSB2”.

B1: cR9, cyclo(RGDINNNVE) (peptide)
peptide: RGDINNNVE
modifications: head-to-tail amide-cyclized
notes: designed cyclic peptide: RGD motif joined to the iNOS-derived stretch DINNNVE; Cyclic: the last residue is amide-bonded to the first; source: synthetic peptide (GL Biochem Ltd.)
Take B1: the binding result in assay [5] and in assay [6] was “binds” throughout. This molecule yielded a Kd in assay [7] of 308 nM.

B2: cR7, cyclo(RGDINNN) (peptide)
peptide: RGDINNN
modifications: head-to-tail amide-cyclized
notes: Cyclic: the last residue is amide-bonded to the first; source: synthetic peptide (GL Biochem Ltd.)
For the molecule B2, the binding result in assay [5] is given as “binds”. For the same molecule, in assay [6], the binding result is on record as “binds”. Besides, in assay [7], the Kd came out at 103 nM and the “stoichiometry N” value turned out to be 1.

One may read the Kd as the concentration at which binding is half-saturated. In general, stoichiometry N refers to a count of units in the complex or per binding partner.
